# Experimental data: the supplement of paper PMC10307832
# Experiments:
# Experiment in all cases: relative viability (nuclei count vs DMSO), 5 days (fraction); higher = more cells survive
# [1] = compound: COC1=CC=C(C=C1)COC2=C(C=C(C=C2)CC3=CN=C(N=C3N)N)OC [GW-2580] + COc1cc2c(Oc3ccc(NC(=O)C4(C(=O)Nc5ccc(F)cc5)CC4)cc3F)ccnc2cc1OCCCN1CCOCC1 [Foretinib] (partner 0.25 µM)
# How it was run: (§1)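 One day after seeding in 1536-well plates, lung cancer cell lines were dosed by pin tool. Dosing was either single-drug or a fixed anchor-drug dose plus five library-drug doses (not always all listed) in √10 steps. After 5 days, nuclei were stained in one fix-and-stain step and counted on 4× images, and relative viability is the nuclei count of treated wells over that of vehicle wells, given as the median of duplicate plates.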
# [2] = compound: COC1=CC=C(C=C1)COC2=C(C=C(C=C2)CC3=CN=C(N=C3N)N)OC [GW-2580] + O=C(CCCCCCC(=O)Nc1ccccc1)NO [Vorinostat] (partner 1 µM)
# How it was run: as §1
# [3] = compound: COC1=CC=C(C=C1)COC2=C(C=C(C=C2)CC3=CN=C(N=C3N)N)OC [GW-2580] + NC(=O)Nc1cc(-c2cccc(F)c2)sc1C(=O)N[C@H]1CCCNC1 [AZD7762] (partner 0.2 µM)
# How it was run: as §1
# [4] = compound: COC1=CC=C(C=C1)COC2=C(C=C(C=C2)CC3=CN=C(N=C3N)N)OC [GW-2580] + Nc1ncn([C@H]2C[C@H](O)[C@@H](CO)O2)c(=O)n1 [Decitabine] (partner 2 µM)
# How it was run: as §1
Cell Line,relative viability ([1]; first compound 0.08 µM),relative viability ([1]; first compound 0.8 µM),relative viability ([1]; first compound 2.53 µM),relative viability ([1]; first compound 8 µM),relative viability ([2]; first compound 0.08 µM),relative viability ([2]; first compound 0.8 µM),relative viability ([2]; first compound 2.53 µM),relative viability ([2]; first compound 8 µM),relative viability ([3]; first compound 0.08 µM),relative viability ([3]; first compound 0.8 µM),relative viability ([3]; first compound 2.53 µM),relative viability ([3]; first compound 8 µM),relative viability ([4]; first compound 0.08 µM),relative viability ([4]; first compound 0.8 µM),relative viability ([4]; first compound 2.53 µM),relative viability ([4]; first compound 8 µM)
201T,1.09,1.1,1.24,1.13,1.01,0.949,0.992,0.883,0.575,0.579,0.583,0.627,0.895,0.914,0.873,0.887
A549,1.01,0.577,1.06,0.902,,,,,,,,,,0.264,0.21,0.288
A-427,1.1,1.14,0.892,1.01,0.534,0.97,0.806,0.848,0.753,0.668,0.568,0.627,0.541,0.555,0.531,0.618
ABC-1,1.09,1.16,0.931,0.86,0.972,1.17,1.06,0.98,0.836,0.941,0.717,0.829,0.72,1.01,1.22,0.934
BEN,0.61,0.731,0.406,0.674,0.587,0.565,0.559,0.633,0.642,0.809,0.599,0.751,0.703,0.79,0.619,0.677
CAL-12T,1.2,1.25,1.11,1.06,0.777,0.697,0.978,0.859,0.639,0.737,0.602,0.594,,,,
COR-L23,1.12,1.15,1.09,0.882,0.495,0.516,0.426,0.524,,,,,0.451,0.462,0.448,0.432
COR-L 105,1.09,1.19,1.05,0.993,0.833,0.926,0.561,0.697,,,,,0.755,0.739,0.675,0.558
Calu-6,0.866,0.898,0.915,0.858,,,,,,,,,,,,
ChaGo-K-1,0.994,0.965,0.924,0.881,0.743,0.726,0.768,0.794,0.933,0.887,0.839,0.878,0.561,0.515,0.495,0.519
EBC-1,0.0973,0.114,0.107,0.0908,,,,,,,,,,,,
EKVX,0.971,1.11,0.726,0.779,0.711,0.951,0.808,0.679,0.7,0.777,0.644,0.804,0.578,0.749,0.345,0.335
EMC-BAC-2,1.13,1.11,1.04,0.865,0.418,0.733,,0.376,1.15,1.33,,1.01,0.977,0.961,,0.943
